PubChem BioAssay AID1259407 (Chemical Carcinogenesis Research Information System (CCRIS), 2018)
Calls of active or inactive are those of the source. The rule behind the calls is not given here.

Tested on: CCRIS mutagenicity, Ames/micronucleus/aberration tests
Assay: CCRIS mutagenicity studies
[1] = Test System: AMES SALMONELLA TYPHIMURIUM, Strain/Indicator: TA98, Metabolic Activation: NONE, Method: PREINCUBATION
[2] = Test System: AMES SALMONELLA TYPHIMURIUM, Strain/Indicator: TA100, Metabolic Activation: NONE, Method: PREINCUBATION

With `O=C1OC(O)C(C(Cl)Cl)=C1Cl` (stereo unspecified) the mutagenic call (Test System: AMES SALMONELLA TYPHIMURIUM, Strain/Indicator: RSJ100, Metabolic Activation: NONE, Method: PREINCUBATION) was “inactive; negative”, the mutagenic call (Test System: AMES SALMONELLA TYPHIMURIUM, Strain/Indicator: RSJ100, Metabolic Activation: RAT LIVER S-9, Method: PREINCUBATION) was “inactive; negative” and the mutagenic call (Test System: AMES SALMONELLA TYPHIMURIUM, Strain/Indicator: TA92, Metabolic Activation: NONE, Method: STANDARD PLATE) was “active; positive”. For the same compound, the mutagenic call (Test System: AMES SALMONELLA TYPHIMURIUM, Strain/Indicator: TA97, Metabolic Activation: NONE, Method: STANDARD PLATE) was “active; positive”, the mutagenic call [1] was “active; positive” and the mutagenic call (Test System: AMES SALMONELLA TYPHIMURIUM, Strain/Indicator: TA98, Metabolic Activation: NONE, Method: STANDARD PLATE) was “active; positive”. For the same compound, the mutagenic call (Test System: AMES SALMONELLA TYPHIMURIUM, Strain/Indicator: TA98, Metabolic Activation: RAT LIVER S-9, AROCLOR 1254, Method: STANDARD PLATE) was “inactive; negative”, the mutagenic call (Test System: AMES SALMONELLA TYPHIMURIUM, Strain/Indicator: TA98, Metabolic Activation: RAT LIVER S-9, Method: PREINCUBATION) was “active; positive” and the mutagenic call (Test System: AMES SALMONELLA TYPHIMURIUM, Strain/Indicator: TA98, Metabolic Activation: RAT, LIVER, S-9, PHENOBARBITAL AND 5,6-BENZOFLAVONE, Method: PREINCUBATION) was “inactive; negative”. For the same compound, the mutagenic call [2] was “active; positive”, the mutagenic call (Test System: AMES SALMONELLA TYPHIMURIUM, Strain/Indicator: TA100, Metabolic Activation: RAT LIVER S-9, AROCLOR 1254, Method: STANDARD PLATE) was “inactive; negative” and the mutagenic call (Test System: AMES SALMONELLA TYPHIMURIUM, Strain/Indicator: TA100, Metabolic Activation: RAT LIVER S-9, Method: PREINCUBATION) was “inactive; negative”. The mutagenic call (Test System: AMES SALMONELLA TYPHIMURIUM, Strain/Indicator: TA100, Metabolic Activation: RAT, LIVER, S-9, AROCLOR 1254, Method: STANDARD PLATE) was “active; positive”, the mutagenic call (Test System: AMES SALMONELLA TYPHIMURIUM, Strain/Indicator: TA100, Metabolic Activation: RAT, LIVER, S-9, PHENOBARBITAL AND 5,6-BENZOFLAVONE, Method: PREINCUBATION) was “inactive; negative” and the mutagenic call (Test System: AMES SALMONELLA TYPHIMURIUM, Strain/Indicator: TA102, Metabolic Activation: NONE, Method: STANDARD PLATE) was “active; positive”. For the same compound, the mutagenic call (Test System: AMES SALMONELLA TYPHIMURIUM, Strain/Indicator: TA1535, Metabolic Activation: NONE, Method: STANDARD PLATE) was “active; positive”, the mutagenic call (Test System: AMES SALMONELLA TYPHIMURIUM, Strain/Indicator: TA1538, Metabolic Activation: NONE, Method: STANDARD PLATE) was “active; positive” and the mutagenic call (Test System: AMES SALMONELLA TYPHIMURIUM, Strain/Indicator: YG7112, Metabolic Activation: NONE, Method: PREINCUBATION) was “active; positive”. The mutagenic call (Test System: AMES SALMONELLA TYPHIMURIUM, Strain/Indicator: YG7113, Metabolic Activation: NONE, Method: PREINCUBATION) was “active; positive”, the mutagenic call (Test System: AMES SALMONELLA TYPHIMURIUM, Strain/Indicator: YG7119, Metabolic Activation: NONE, Method: PREINCUBATION) was “active; positive” and the mutagenic call (Test System: Ames Salmonella typhimurium, Strain/Indicator: TA100, Metabolic Activation: None, Method: Preincubation) was “active; positive”. For the same compound, the mutagenic call (Test System: Ames Salmonella typhimurium, Strain/Indicator: TA104, Metabolic Activation: None, Method: Plate incorporation) was “active; positive”, the mutagenic call (Test System: Ames Salmonella typhimurium, Strain/Indicator: TA1975P, Metabolic Activation: None, Method: Preincubation) was “active; positive (at higher doses)” and the mutagenic call (Test System: CHINESE HAMSTER OVARY, Strain/Indicator: CHO-KTL3 (HPRT)/6-THIOGUANINE, Metabolic Activation: NONE) was “active; positive”. The mutagenic call (Test System: CHINESE HAMSTER V-79, Strain/Indicator: V-79 (HGPRT), Metabolic Activation: NONE) was “inactive; negative”, the mutagenic call (Test System: E. COLI, Strain/Indicator: CL101P, Metabolic Activation: NONE, Method: PREINCUBATION) was “active; positive” and the mutagenic call (Test System: E. COLI, Strain/Indicator: CL102P, Metabolic Activation: NONE, Method: PREINCUBATION) was “active; positive”. For the same compound, the mutagenic call (Test System: E. COLI, Strain/Indicator: CL103P, Metabolic Activation: NONE, Method: PREINCUBATION) was “active; positive”, the mutagenic call (Test System: E. COLI, Strain/Indicator: CL104P, Metabolic Activation: NONE, Method: PREINCUBATION) was “active; positive” and the mutagenic call (Test System: E. COLI, Strain/Indicator: CL105P, Metabolic Activation: NONE, Method: PREINCUBATION) was “active; positive”. For the same compound, the mutagenic call (Test System: E. COLI, Strain/Indicator: CL106P, Metabolic Activation: NONE, Method: PREINCUBATION) was “inactive; negative”, the mutagenic call (Test System: E. COLI, Strain/Indicator: WP2, Metabolic Activation: NONE, Method: PREINCUBATION) was “inactive; negative” and the mutagenic call (Test System: E. COLI, Strain/Indicator: WP2 UVRA, Metabolic Activation: NONE, Method: PREINCUBATION) was “active; positive”. The mutagenic call (Test System: E. coli, Strain/Indicator: XL-1 Blue MRA P2 (Spi), Method: Standard plate) was “inactive; negative”, the mutagenic call (Test System: E. coli, Strain/Indicator: YG6020 (Gpt)/6-Thioguanine, Method: Standard plate) was “inactive; negative” and the mutagenic call (Test System: HUMAN H1A1V2 CELLS, Strain/Indicator: TK LOCUS, Metabolic Activation: NONE, Method: SUSPENSION/PLATE) was “active; positive”. The mutagenic call (Test System: HUMAN LYMPHOBLASTOID CELLS, Strain/Indicator: AHH-1 CELLS (TK+/TK-), Metabolic Activation: NONE, Method: SUSPENSION/PLATE) was “active; positive”, the mutagenic call (Test System: HUMAN LYMPHOBLASTOID CELLS, Strain/Indicator: MCL-5 CELLS (TK+/TK-), Metabolic Activation: NONE, Method: SUSPENSION/PLATE) was “active; positive” and the mutagenic call (Test System: MOUSE LYMPHOMA, Strain/Indicator: L5178Y (TK+/TK-), Metabolic Activation: NONE, Method: SUSPENSION/PLATE) was “active; positive”. For the same compound, the mutagenic call (Test System: UDS HUMAN HEPATOCYTES, Strain/Indicator: THY INCORP, Metabolic Activation: NONE, Method: AUTORADIOGRAPHY) was “active; positive”, the mutagenic call (Test System: UDS MOUSE HEPATOCYTES, Strain/Indicator: THY INCORP, Metabolic Activation: IN VIVO, Method: AUTORADIOGRAPHY) was “inactive; negative” and the mutagenic call (Test System: UDS MOUSE HEPATOCYTES, Strain/Indicator: THY INCORP, Metabolic Activation: NONE, Method: AUTORADIOGRAPHY) was “active; positive”. For the same compound, the mutagenic call (Test System: UDS RAT HEPATOCYTES, Strain/Indicator: THY INCORP, Metabolic Activation: NONE, Method: AUTORADIOGRAPHY) was “active; positive” and the mutagenic call (Test System: UDS RAT HEPATOCYTES, Strain/Indicator: THYMIDINE INCORPORATION, Metabolic Activation: NONE, Method: AUTORADIOGRAPHY) was “active; positive”.
With `Cc1cc2c3c(ccc2c2ccccc12)C(O)C(O)[C@@H]1O[C@@H]31` (stereo partly specified) the mutagenic call [2] was “inactive; negative”.
In the case of `CCCC/C=C/C=O`, the mutagenic call [2] is reported as “inactive; negative”, the mutagenic call (Test System: AMES SALMONELLA TYPHIMURIUM, Strain/Indicator: TA100, Metabolic Activation: NONE, Method: PREINCUBATION (THREEFOLD CELL DENSITY)) is reported as “active; positive” and the mutagenic call (Test System: AMES SALMONELLA TYPHIMURIUM, Strain/Indicator: TA100, Metabolic Activation: RAT, LIVER, S-9, AROCLOR 1254, Method: PREINCUBATION) is reported as “inactive; negative”. The mutagenic call (Test System: AMES SALMONELLA TYPHIMURIUM, Strain/Indicator: TA100, Metabolic Activation: RAT, LIVER, S-9, AROCLOR 1254, Method: PREINCUBATION (THREEFOLD CELL DENSITY)) was “inactive; negative”, the mutagenic call (Test System: CHINESE HAMSTER V-79, Strain/Indicator: V-79/6-THIOGUANINE, Metabolic Activation: NONE, Method: STANDARD PLATE) was “active; positive” and the mutagenic call (Test System: CHINESE HAMSTER V-79, Strain/Indicator: V-79/OUABAIN, Metabolic Activation: NONE, Method: STANDARD PLATE) was “active; positive”.
With `C1CCCNCC1` the mutagenic call [1] was “inactive; negative”, the mutagenic call (Test System: AMES SALMONELLA TYPHIMURIUM, Strain/Indicator: TA98, Metabolic Activation: RAT LIVER S-9, PHENOBARBITAL AND BETA-NAPHTHOFLAVONE, Method: PREINCUBATION) was “inactive; negative” and the mutagenic call [2] was “inactive; negative”. For the same compound, the mutagenic call (Test System: AMES SALMONELLA TYPHIMURIUM, Strain/Indicator: TA100, Metabolic Activation: RAT LIVER S-9, PHENOBARBITAL AND BETA-NAPHTHOFLAVONE, Method: PREINCUBATION) was “inactive; negative”, the mutagenic call (Test System: AMES SALMONELLA TYPHIMURIUM, Strain/Indicator: TA1535, Metabolic Activation: NONE, Method: PREINCUBATION) was “inactive; negative” and the mutagenic call (Test System: AMES SALMONELLA TYPHIMURIUM, Strain/Indicator: TA1535, Metabolic Activation: RAT LIVER S-9, PHENOBARBITAL AND BETA-NAPHTHOFLAVONE, Method: PREINCUBATION) was “inactive; negative”. For the same compound, the mutagenic call (Test System: AMES SALMONELLA TYPHIMURIUM, Strain/Indicator: TA1537, Metabolic Activation: NONE, Method: PREINCUBATION) was “inactive; negative”, the mutagenic call (Test System: AMES SALMONELLA TYPHIMURIUM, Strain/Indicator: TA1537, Metabolic Activation: RAT LIVER S-9, PHENOBARBITAL AND BETA-NAPHTHOFLAVONE, Method: PREINCUBATION) was “inactive; negative” and the mutagenic call (Test System: E.COLI, Strain/Indicator: WP2UVRA, Metabolic Activation: NONE, Method: PREINCUBATION) was “inactive; negative”. For the same compound, the mutagenic call (Test System: E.COLI, Strain/Indicator: WP2UVRA, Metabolic Activation: RAT LIVER S-9, PHENOBARBITAL AND BETA-NAPHTHOFLAVONE, Method: PREINCUBATION) was “inactive; negative”.
